The text below walks through data of ChEMBL document CHEMBL1201862, “PubChem BioAssay data set” (2004).

Activity calls are given as the source filed them.

One assay deals with Vero. In words: viability loss in Vero cells – cell-based, plate reader, cherry-pick samples, cytotoxicity control, dose response (AID 687020). The class given is functional. As to conditions: Chlorocebus sabaeus.
Assay [1] concerns the target T1, Low molecular weight phosphotyrosine protein phosphatase (Homo sapiens, UniProt P24666).
T1 sequence (P24666 whole entry): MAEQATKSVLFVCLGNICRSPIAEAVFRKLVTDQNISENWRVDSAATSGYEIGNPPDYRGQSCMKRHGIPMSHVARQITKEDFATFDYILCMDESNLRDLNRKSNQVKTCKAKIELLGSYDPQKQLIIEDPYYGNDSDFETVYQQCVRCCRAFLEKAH
The class given is functional. As to conditions: read-out: IC50_Mean.

Assay [2] concerns the target T1, Low molecular weight phosphotyrosine protein phosphatase. In kind it is functional. As to conditions: read-out: IC50_Mean. This is another data set of the same source.
Assay [3] addresses Nuclear receptor subfamily 5 group A member 2 (Homo sapiens, UniProt O00482). In kind it is functional, cell-based.
In another assay the target is Steroidogenic factor 1 (Homo sapiens, UniProt Q13285). In words: Counterscreen for inverse agonists of the liver receptor homolog-1 (LRH-1; NR5A2): Luminescence-based cell-based high throughput dose response assay to identify inverse agonists of the Steroidogenic Factor 1 Nuclear Receptor (SF1; NR5A1). In kind it is functional. On the technique in general: The purpose of a counterscreen is to sort out artefacts and off-target activity.
Chain of Steroidogenic factor 1 (Q13285 whole entry): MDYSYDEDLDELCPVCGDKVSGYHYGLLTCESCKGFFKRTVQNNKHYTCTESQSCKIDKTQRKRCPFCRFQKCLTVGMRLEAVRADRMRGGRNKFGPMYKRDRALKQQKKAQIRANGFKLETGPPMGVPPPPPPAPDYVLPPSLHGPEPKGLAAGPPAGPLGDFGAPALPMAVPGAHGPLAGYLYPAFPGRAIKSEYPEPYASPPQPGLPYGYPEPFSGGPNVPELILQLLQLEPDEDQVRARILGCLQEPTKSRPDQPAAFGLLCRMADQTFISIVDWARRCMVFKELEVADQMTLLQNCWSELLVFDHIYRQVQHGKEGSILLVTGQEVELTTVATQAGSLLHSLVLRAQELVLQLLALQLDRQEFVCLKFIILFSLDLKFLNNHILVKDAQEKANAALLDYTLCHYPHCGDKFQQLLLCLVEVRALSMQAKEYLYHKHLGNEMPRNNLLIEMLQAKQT

Assay [4] can be described thus: nonselective StAR promoter luciferase inhibitors – cell-based, luminescence, luciferase reporter, counter-screen for LRH-1 inverse agonist project, dose response (AID 651969). In kind it is functional. (A reporter such as luciferase makes a cellular process visible.)
In assay [5] the target is T2, Small ubiquitin-related modifier 1 (Homo sapiens, UniProt P63165). In words: SUMO1 protein interaction blockers, potency – biochemical, fluorescence polarization, uHTS hits, dose response (AID 624382). The class given is functional. As to conditions: read-out: IC50_Mean. On the technique in general: In fluorescence polarisation assays a small probe gives low polarisation when free and higher when bound to something large.
T2 sequence (P63165 whole entry): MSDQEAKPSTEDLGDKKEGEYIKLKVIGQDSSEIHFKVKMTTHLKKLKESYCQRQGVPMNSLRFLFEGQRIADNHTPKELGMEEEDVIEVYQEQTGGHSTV

Assay [6] deals with Beta-lactamase (Salmonella choleraesuis (strain SC-B67), UniProt Q5J463).
Chain of Beta-lactamase (Salmonella choleraesuis (strain SC-B67), UniProt Q5J463) (Q5J463 whole entry): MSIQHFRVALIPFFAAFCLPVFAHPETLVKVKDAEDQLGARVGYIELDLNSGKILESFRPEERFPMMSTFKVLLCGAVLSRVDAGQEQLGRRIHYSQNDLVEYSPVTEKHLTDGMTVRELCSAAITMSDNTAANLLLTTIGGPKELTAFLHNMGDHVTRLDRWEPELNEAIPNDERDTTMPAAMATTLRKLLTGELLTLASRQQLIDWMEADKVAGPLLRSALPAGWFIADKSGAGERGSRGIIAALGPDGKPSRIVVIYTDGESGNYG
For assay [7], the target named is T2, Small ubiquitin-related modifier 1. In words: SUMO1 protein-protein binding blockers, potency – biochemical, FRET, dose response (AID 624383). As to conditions: read-out: IC50_Mean. In kind it is functional.
Assay [8] addresses Beta-lactamase (Pseudomonas aeruginosa, UniProt Q79MP6).
Assay [9] in a line: loss of viability in HepG2 cells – cell-based, CellTiter-Glo, cherry-picked, cytotoxicity control for Shn3 inhibitor project, dose response (AID 624134). The class given is functional.
The nature of assay [10]: reduction of Shn3 3'UTR-driven luciferase in osteoblasts – cell-based, Clone20 osteoblasts, firefly luciferase, cherry-picked, dose response (AID 624132).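 Also: firefly luciferase luminescence from reporter carrying the Shn3 3'UTR in osteoblasts.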 In kind it is functional.
Assay [11] concerns the target Photoreceptor-specific nuclear receptor (Homo sapiens, UniProt Q9Y5X4). The class given is functional, cell-based.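 Also: CHO-S cells with Gal4-NCOR and VP16-NR2E3 two-hybrid luciferase reporter.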
A short description of assay [12]: non-specific 3'UTR reporter inhibition in Clone20-Shn3RL – cell-based, Renilla luciferase, cherry-picked, counter-screen for Shn3 inhibitor project, dose response (AID 624133). The class given is functional.
The nature of assay [13]: Fluorescence-based cell-based high throughput dose response assay for inhibitors of the interaction of nucleotide-binding oligomerization domain containing 2 (NOD2) and the receptor-interacting serine-threonine kinase 2 (RIPK2). As to conditions: Homo sapiens. In kind it is functional.
Assay [14] has as its target T3, Corticotropin-releasing factor receptor 2/Corticotropin-releasing factor-binding protein (Homo sapiens, UniProt P24387+Q13324).
T3 sequence (Q13324 whole entry): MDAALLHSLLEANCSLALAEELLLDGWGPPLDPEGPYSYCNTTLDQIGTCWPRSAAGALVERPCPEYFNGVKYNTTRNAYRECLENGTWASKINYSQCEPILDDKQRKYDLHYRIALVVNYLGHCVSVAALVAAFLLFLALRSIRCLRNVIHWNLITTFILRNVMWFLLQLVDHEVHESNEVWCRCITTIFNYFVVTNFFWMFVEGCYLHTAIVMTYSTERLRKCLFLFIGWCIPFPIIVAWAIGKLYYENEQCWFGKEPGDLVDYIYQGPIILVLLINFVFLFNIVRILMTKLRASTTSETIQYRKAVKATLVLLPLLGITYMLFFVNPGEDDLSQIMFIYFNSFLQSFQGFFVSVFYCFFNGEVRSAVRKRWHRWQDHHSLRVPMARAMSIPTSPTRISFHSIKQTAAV
T3 sequence (P24387 whole entry): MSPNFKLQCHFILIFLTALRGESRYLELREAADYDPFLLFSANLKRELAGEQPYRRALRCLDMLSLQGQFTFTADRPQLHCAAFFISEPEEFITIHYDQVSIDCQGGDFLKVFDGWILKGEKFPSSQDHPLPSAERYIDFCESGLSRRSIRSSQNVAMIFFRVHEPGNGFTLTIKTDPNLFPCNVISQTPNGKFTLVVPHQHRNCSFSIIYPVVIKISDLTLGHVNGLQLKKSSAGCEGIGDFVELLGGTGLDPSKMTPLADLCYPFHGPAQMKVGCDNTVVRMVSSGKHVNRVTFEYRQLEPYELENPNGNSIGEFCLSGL
In words: Dose Response confirmation of uHTS hits for small molecule antagonists of the CRF-binding protein and CRF-R2 receptor complex. The class given is functional. As to conditions: read-out: IC50_Mean.

Assay [15] can be described thus: blockers of CRF-binding protein–CRF-R2 complex – cell-based, uHTS hits, 384-well, dose response (AID 651639). The class given is functional, Homo sapiens. As to conditions: read-out: IC50_Mean.
For a further assay, the target named is T4, Leucine aminopeptidase (Plasmodium falciparum 3D7, UniProt Q8IL11).
T4 sequence (Q8IL11 whole entry): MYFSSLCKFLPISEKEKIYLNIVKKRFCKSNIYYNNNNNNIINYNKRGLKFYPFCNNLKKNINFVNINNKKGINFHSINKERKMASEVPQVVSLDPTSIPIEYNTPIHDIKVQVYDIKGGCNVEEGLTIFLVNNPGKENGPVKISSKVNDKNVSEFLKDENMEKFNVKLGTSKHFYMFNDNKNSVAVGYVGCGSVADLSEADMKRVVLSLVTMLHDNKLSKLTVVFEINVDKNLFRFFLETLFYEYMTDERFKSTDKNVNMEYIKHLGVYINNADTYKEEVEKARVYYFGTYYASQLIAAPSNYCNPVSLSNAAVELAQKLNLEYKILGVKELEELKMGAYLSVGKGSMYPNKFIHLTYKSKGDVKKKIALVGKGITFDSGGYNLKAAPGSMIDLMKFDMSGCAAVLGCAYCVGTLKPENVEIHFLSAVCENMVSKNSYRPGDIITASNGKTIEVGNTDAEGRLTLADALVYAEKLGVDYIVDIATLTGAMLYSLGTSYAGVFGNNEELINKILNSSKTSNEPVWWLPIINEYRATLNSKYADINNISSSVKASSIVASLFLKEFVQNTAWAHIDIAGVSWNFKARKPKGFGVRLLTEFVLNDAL
In words: P. falciparum M17LAP inhibitors, primary screen, biochemical, fluorogenic H-Leu-NHMec substrate, 1536-well (AID 1619). In kind it is functional.

Assay [16] deals with T3, Corticotropin-releasing factor receptor 2/Corticotropin-releasing factor-binding protein. In words: activators of CRF receptor 2 with binding protein – uHTS hits, confirmation (AID 602473). In kind it is functional. As to conditions: read-out: EC50_Mean.
The nature of assay [17]: Counterscreen for activators of the function of SWI/SNF related, matrix associated, actin dependent regulator of chromatin, subfamily a, member 2 (SMARCA2, BRM): Luminescence-based cell-based high throughput dose response assay to identify non-selective compounds using the VP16 reporter assay. In kind it is functional.
Assay [18] addresses SWI/SNF-related matrix-associated actin-dependent regulator of chromatin subfamily A member 2 (Homo sapiens, UniProt P51531). In words: Luminescence-based cell-based high throughput dose response assay to identify activators of the function of SWI/SNF related, matrix associated, actin dependent regulator of chromatin, subfamily a, member 2 (SMARCA2, BRM). The class given is functional.

A further assay addresses Paired box protein Pax-8 (Homo sapiens, UniProt Q06710). In words: PAX8 transcriptional activity inhibition in RMG-I – RMG-I cells, luciferase, cherry-pick, dose response (AID 687027).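 Also: luciferase reporter driven by Pax8 target thyroperoxidase promoter measured by SteadyGlo luminescence.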 The class given is functional, cell-based.
The target in a further assay is T5, Caspase-6 (Homo sapiens, UniProt P55212).
T5 sequence (P55212 whole entry): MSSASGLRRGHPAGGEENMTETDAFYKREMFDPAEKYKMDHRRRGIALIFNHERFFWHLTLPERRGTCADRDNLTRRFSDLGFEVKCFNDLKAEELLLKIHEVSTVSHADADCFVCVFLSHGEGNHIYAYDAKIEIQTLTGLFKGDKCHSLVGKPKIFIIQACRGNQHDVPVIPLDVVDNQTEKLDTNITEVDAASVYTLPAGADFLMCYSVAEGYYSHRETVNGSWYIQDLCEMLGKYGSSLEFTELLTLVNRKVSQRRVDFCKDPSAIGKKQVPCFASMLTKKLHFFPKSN
In words: inhibition of CASP6 peptide cleavage – biochemical, VEID-R110 fluorescence, cherry-pick, dose response (AID 720632).

Assay [19] can be described thus: Luminescence Cell-Based Dose Retest to Confirm Inhibitors of Cancer Stem Cells. [Related pubchem assays (depositor defined):AID2717, AID2721]. The class given is functional. As to conditions: Homo sapiens.
A short description of assay [20]: general mammalian cell viability loss – activator set, cherry-pick, cytotoxicity control for miR-122 modulator project, dose response (AID 720690).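 Also: HEK293T human cells scored for general mammalian cytotoxicity.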 In kind it is functional, cell-based.
A short description of assay [21]: activation of miR-122 Renilla sensor silencing – cell-based, Huh7 psiCHECK-miR122, Renilla luciferase, cherry-picked, dose response (AID 651956).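 Also: huh7 hepatoma cells stably carrying a psiCHECK-2 miR-122 sensor plasmid; renilla luciferase signal reporting endogenous miR-122 activity after 48 h compound exposure.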 The class given is functional.
Assay [22] is described as follows: general mammalian cell viability loss – inhibitor set, cherry-pick, set 2, cytotoxicity control for miR-122 modulator project, dose response (AID 720697). The class given is functional, cell-based.
Assay [23] has as its target T6, Microphthalmia-associated transcription factor (Homo sapiens, UniProt O75030).
T6 sequence (O75030 whole entry): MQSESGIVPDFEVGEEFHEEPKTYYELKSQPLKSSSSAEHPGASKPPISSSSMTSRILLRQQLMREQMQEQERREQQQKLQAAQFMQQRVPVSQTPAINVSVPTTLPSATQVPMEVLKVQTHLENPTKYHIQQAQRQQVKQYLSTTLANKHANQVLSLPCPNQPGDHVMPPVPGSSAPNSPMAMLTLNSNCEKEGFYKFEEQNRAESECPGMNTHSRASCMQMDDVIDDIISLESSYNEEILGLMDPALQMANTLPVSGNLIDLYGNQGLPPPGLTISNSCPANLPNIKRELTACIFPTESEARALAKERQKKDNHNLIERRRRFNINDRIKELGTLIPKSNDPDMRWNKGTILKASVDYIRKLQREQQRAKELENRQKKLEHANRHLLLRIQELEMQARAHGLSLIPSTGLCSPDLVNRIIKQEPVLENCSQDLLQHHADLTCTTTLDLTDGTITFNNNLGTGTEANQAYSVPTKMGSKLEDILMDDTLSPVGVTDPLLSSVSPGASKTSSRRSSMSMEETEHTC
In words: reducers of TRPM1 reporter luminescence, concentration series – cell-based, SK-MEL-5, cherry-picked, set 3, MITF inhibitor project, dose response (AID 493073).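 Also: SK-MEL-5 melanoma cells with luciferase driven by the MITF target TRPM1 promoter.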 In kind it is functional.

Chain of Photoreceptor-specific nuclear receptor (Q9Y5X4 whole entry, the tested form may be a part): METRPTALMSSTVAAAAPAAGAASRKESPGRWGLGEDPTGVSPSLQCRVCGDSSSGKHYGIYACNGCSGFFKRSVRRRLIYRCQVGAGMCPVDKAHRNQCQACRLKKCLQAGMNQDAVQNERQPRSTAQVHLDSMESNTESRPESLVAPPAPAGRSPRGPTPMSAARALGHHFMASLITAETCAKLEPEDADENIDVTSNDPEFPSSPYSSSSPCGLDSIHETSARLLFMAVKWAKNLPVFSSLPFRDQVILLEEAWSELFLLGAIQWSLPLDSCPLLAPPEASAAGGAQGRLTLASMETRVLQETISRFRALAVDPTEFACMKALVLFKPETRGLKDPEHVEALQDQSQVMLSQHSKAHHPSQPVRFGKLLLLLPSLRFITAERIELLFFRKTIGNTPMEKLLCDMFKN
Chain of Nuclear receptor subfamily 5 group A member 2 (O00482 whole entry): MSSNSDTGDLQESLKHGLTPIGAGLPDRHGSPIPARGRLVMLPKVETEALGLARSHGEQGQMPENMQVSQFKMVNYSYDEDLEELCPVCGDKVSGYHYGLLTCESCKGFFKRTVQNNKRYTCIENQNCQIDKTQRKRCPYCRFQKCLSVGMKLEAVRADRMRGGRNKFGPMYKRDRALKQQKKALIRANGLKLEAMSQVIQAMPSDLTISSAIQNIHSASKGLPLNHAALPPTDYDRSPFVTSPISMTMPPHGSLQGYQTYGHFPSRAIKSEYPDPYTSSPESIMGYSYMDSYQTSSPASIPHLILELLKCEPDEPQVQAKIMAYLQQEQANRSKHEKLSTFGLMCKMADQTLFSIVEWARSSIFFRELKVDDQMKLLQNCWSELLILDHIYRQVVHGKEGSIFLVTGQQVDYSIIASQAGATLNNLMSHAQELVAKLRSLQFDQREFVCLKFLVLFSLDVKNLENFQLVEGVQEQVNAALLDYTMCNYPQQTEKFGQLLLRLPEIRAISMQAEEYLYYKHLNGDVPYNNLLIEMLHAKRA
Chain of Beta-lactamase (Pseudomonas aeruginosa, UniProt Q79MP6) (Q79MP6 whole entry): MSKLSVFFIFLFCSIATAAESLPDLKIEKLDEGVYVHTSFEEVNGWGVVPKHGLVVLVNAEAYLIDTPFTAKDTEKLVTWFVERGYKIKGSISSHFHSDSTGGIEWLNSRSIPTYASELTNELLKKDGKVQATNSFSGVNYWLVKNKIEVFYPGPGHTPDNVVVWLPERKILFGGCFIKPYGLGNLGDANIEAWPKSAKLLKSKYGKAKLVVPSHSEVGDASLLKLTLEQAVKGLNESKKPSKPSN
Chain of Paired box protein Pax-8 (Q06710 whole entry): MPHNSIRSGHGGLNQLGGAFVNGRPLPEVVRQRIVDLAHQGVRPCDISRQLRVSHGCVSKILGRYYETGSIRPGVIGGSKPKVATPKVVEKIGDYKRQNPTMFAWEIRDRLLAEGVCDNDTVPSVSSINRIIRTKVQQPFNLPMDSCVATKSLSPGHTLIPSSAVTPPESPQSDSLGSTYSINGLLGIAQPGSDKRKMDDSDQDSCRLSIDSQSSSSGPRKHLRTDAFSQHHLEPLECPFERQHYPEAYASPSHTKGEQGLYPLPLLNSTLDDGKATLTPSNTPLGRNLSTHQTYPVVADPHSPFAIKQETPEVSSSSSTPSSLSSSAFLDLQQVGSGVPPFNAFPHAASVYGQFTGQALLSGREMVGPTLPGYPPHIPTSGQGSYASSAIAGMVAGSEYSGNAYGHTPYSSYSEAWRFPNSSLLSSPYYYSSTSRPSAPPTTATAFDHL
Chain of SWI/SNF-related matrix-associated actin-dependent regulator of chromatin subfamily A member 2 (P51531 whole entry): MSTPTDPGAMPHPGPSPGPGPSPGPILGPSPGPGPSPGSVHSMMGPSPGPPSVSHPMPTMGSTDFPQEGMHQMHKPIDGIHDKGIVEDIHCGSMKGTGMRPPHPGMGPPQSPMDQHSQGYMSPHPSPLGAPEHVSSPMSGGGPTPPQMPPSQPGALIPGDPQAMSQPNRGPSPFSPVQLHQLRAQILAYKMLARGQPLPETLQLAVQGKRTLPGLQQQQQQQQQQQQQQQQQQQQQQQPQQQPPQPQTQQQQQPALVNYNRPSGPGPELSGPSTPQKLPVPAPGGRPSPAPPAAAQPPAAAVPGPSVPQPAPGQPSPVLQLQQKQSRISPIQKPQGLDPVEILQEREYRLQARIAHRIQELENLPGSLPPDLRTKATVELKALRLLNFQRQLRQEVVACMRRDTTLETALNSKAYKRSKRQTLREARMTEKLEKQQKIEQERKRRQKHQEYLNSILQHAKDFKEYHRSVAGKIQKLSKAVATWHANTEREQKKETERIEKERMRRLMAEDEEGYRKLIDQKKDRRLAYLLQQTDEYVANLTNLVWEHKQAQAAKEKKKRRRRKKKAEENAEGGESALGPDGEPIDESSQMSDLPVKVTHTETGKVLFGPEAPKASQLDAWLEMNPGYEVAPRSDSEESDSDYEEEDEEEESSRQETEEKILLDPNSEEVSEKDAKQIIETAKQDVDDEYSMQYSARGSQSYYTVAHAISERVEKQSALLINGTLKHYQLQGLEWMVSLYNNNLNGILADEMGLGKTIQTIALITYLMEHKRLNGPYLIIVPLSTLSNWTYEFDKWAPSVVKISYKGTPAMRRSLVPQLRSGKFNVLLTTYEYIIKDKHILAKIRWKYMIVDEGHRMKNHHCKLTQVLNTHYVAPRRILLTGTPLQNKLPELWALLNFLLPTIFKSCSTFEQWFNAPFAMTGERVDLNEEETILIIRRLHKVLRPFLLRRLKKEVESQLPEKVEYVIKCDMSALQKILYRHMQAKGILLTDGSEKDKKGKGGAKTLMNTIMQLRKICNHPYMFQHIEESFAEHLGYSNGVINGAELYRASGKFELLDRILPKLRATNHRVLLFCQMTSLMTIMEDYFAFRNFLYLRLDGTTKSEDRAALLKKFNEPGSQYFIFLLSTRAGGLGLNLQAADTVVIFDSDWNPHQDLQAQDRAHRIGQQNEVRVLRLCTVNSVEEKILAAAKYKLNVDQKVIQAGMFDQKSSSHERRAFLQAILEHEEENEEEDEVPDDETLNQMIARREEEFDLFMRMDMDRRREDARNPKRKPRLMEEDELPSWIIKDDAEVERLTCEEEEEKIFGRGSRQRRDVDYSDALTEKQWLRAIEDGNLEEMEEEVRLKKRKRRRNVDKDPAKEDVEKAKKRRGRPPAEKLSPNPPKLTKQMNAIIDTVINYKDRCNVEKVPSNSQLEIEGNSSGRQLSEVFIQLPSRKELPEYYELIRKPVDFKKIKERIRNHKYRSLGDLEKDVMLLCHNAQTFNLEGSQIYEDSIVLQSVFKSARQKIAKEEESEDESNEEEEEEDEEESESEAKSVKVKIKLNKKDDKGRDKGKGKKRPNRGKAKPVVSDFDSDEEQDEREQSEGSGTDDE

In general, AC50 refers to the concentration at which the activity in the assay is half-maximal. As for `CC(C)c1ccc(Nc2ncc3c(n2)CCN(C(=O)Nc2ccc(F)c(Cl)c2)C3)cc1`, the AC50 in the assay on Vero is 21 µM (active).

For `O=C(N/N=C/c1ccc(OC(=O)c2cccc(F)c2)cc1)c1cccnc1`, the IC50 in [1] was 14.4 µM (active); in assay [2], 15.4 µM (active).

Turning to `C/C(=N\Nc1cc(C(F)(F)F)ccc1Cl)c1ccncc1`, the IC50 in assay [3] is 26.2 µM (inactive); on Steroidogenic factor 1 it was 12 µM (inactive); in assay [4], 35.9 µM (inactive).

In the case of `COc1ccccc1-c1csc(-n2ncc(C#N)c2N)n1`, the IC50 was > 66.6 µM (inactive) in assay [5], > 59.6 µM (inactive) on Beta-lactamase [6], 6.71 µM (active) in assay [7] and > 59.6 µM (inactive) at Beta-lactamase [8].

With `O=C(CN1CCN(c2ccccc2F)CC1)c1ccc2cc[nH]c2c1`, the IC50 in assay [1] is 5.49 µM (active); in [2] it was 14.6 µM (active).

Turning to `CC(C)(C)NCC(=Cc1ccccc1)C(=O)c1ccccc1`, the AC50 in assay [9] was 11.1 µM (active); in assay [10], 4.51 µM (active); in assay [12] it was 6.44 µM (active). The IC50 is 2.91 µM (active) in assay [11] and 10.4 µM (inactive) in assay [13].

Consider `Cc1ccc(S(=O)(=O)N(CC(=O)Nc2ccccc2C(=O)O)c2cccc(Cl)c2C)cc1`, for which the IC50 was 41.1 µM (active) in assay [14], 2.15 µM (active) in [11], 15.6 µM (active) in assay [15] and 24.7 µM (active) at Leucine aminopeptidase. In addition, the EC50 in assay [16] is 41.2 µM (active).

Consider `OCC1OC(n2cnc3c(SCc4ccccc4)ncnc32)C(O)C1O` (stereo unspecified), for which the EC50 in assay [17] and in [18] was > 91.3 µM (inactive) throughout.

With `Cc1cc(Cl)c2oc(C(=O)N(C)CCCCN3CCOCC3)c(C)c2c1`, in the assay with Vero, the AC50 was 30.2 µM (active).

For `Cc1ccc(NC(=O)CN(C)C(=O)Cn2ncc(Cl)c(Cl)c2=O)cc1`, the concentration at half-maximal activity (AC50) is 3.57 µM (active) on Paired box protein Pax-8; 5.9 µM (active) at Caspase-6; 4.54 µM (active) in assay [19]; 3.57 µM (active) in [20]; 4.2 µM (active) in assay [21]; 8.04 µM (active) in assay [22]. Also, the AC50 in assay [23] was 9.16 µM (active). Also, in [13], the IC50 was 4.34 µM (active).

For `Cc1cc(=O)oc2c(C)c(OCC(=O)NC3CC(C)(C)NC(C)(C)C3)ccc12`, the IC50 (in assay [3]; at Steroidogenic factor 1; in [4]) was 35.9 µM (inactive) in each case.
